Tested on: subjects with CRPS
Experiment: Open-label single-arm Phase III trial of intravenous neridronic acid, average pain intensity (11-point NRS)
Format: in vivo, human
Conditions: subjects with CRPS duration >2 years; 400 mg i.v. cumulative, 4 infusions of 240 min; interim look
Experimental: A multi-site, open-label, single-arm, Phase III safety trial of intravenous neridronic acid at a cumulative dose of 400 mg was conducted in subjects with CRPS to investigate the safety and tolerability of intravenous neridronic acid in subjects with CRPS.
The trial product was supplied in glass vials, each containing 111.2 mg sodium neridronate hemihydrate (equivalent to 100 mg neridronic acid) in a total volume of 8 mL. For each infusion, before use, the trial product was diluted in sterile normal saline (0.9% NaCl, e.g., United States Pharmacopeia (USP) grade saline for injection) to a volume of approximately 500 mL and administered by slow intravenous infusion (240 minutes [maximum 260 minutes]) at day 1, day 4, day 7 and day 10, resulting in a total dose of 400 mg neridronic acid.
In addition, the trial provided supportive data on efficacy and long-term effectiveness of neridronic acid of 400 mg. Average, worst (both with a 24-hour recall period) and current pain intensity was measured at the trial visits using an 11-point numerical rating scale on a tablet computer.
The trial included an enrollment period lasting up to 60 days, a treatment period consisting of 4 infusions of neridronic acid over 10 days, and a follow-up period of approximately 50 weeks. […]

Structure (SMILES): NCCCCCC(O)(P(=O)(O)O)P(=O)(O)O [neridronic acid]
- mean (standard deviation) change from baseline to Day 84 in average pain intensity (NRS): −1.22 (2.197)
